Results as given in patent US8648066B2 (Exelixis, Inc., priority 2009, dated 2014).

Molecular target: mTOR/GbL/Raptor (mTORC1) (Homo sapiens, UniProt P42345)
Assay: mTOR/GbL/Raptor (mTORC1) ELISA assay
Format: biochemical
Conditions: phosphorylation of 4E-BP1; 0.2 nM mTORC1, 10 μM ATP; read-out: IC50 in this assay (mTORC1 ELISA)
How it was run: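 ELISA read-out: phospho-4E-BP1 captured on Ni-chelate plates and detected with anti-phospho antibody plus HRP-anti-IgG luminescence. The kinase step ran 120 min at ambient temperature with 0.2 nM human mTORC1, 10 µM ATP, 50 nM His-4E-BP1, 10 mM MnCl2, pH 7.2 HEPES.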

IC50	Structure (SMILES)
0.01 to 0.05 µM	Cc1nc(CN(C)C)nc(N2CCOc3ccc(-c4cnc5sc(N)nc5c4)cc3C2)c1CC(C)C [Example 665, 6-(4-{2-[(dimethylamino)methyl]-6-methyl-5-(2-methylpropyl)pyrimidin-4-yl}-2,3,4,5-tetrahydro-1,4-benzoxazepin-7-yl)[1,3]thiazolo[5,4-b]pyridin-2-amine]
0.01 to 0.05 µM	CC1(C)CCc2ncnc(N3CCOc4ccc(-c5cnc(N)c(S(=O)(=O)NCCF)c5)cc4C3)c2C1 [Example 366, 2-amino-5-[4-(6,6-dimethyl-5,6,7,8-tetrahydroquinazolin-4-yl)-2,3,4,5-tetrahydro-1,4-benzoxazepin-7-yl]-N-(2-fluoroethyl)pyridine-3-sulfonamide]
0.05 to 0.25 µM	COCC1CCc2c(ncnc2N2CCOc3ccc(-c4cnc5nc(C)[nH]c5c4)cc3C2)C1 (centres unmarked) [Example 567, 7-(2-methyl-1H-imidazo[4,5-b]pyridin-6-yl)-4-{7-[(methyloxy)methyl]-5,6,7,8-tetrahydrquinazolin-4-yl}-2,3,4,5-tetrahydro-1,4-benzoxazepine]
0.01 to 0.05 µM	CCOC(=O)Nc1nc2ncc(-c3ccc4c(c3)CN(c3ncnc5c3CC(C)(C)CC5)CCO4)cc2[nH]1 [Example 576, ethyl {6-[4-(6,6-dimethyl-5,6,7,8-tetrahydroquinazolin-4-yl)-2,3,4,5-tetrahydro-1,4-benzoxazepin-7-yl]-1H-imidazo[4,5-b]pyridin-2-yl}carbamate]
0.01 to 0.05 µM	Nc1nc2ncc(-c3ccc4c(c3)CN(c3ncnc5ccc(Cl)cc35)CCO4)cc2[nH]1 [Example 186, 6-[4-(6-chloroquinazolin-4-yl)-2,3,4,5-tetrahydro-1,4-benzoxazepin-7-yl]-1H-imidazo[4,5-b]pyridin-2-amine]
1 to 2 µM	CCN1CCc2c(ncnc2N2CCOc3ccc(-c4ccc5nc(C)[nH]c5c4)cc3C2)C1 [Example 211, 4-(7-ethyl-5,6,7,8-tetrahydropyrido[3,4-d]pyrimidin-4-yl)-7-(2-methyl-1H-benzimidazol-6-yl)-2,3,4,5-tetrahydro-1,4-benzoxazepine]
≤ 0.01 µM	Cc1nc2cc(-c3ccc4c(c3)CN(c3nc(CN(C)C)nc(C)c3Cc3ccc(F)cc3)CCO4)cnc2[nH]1 [Example 348, 1-{5-[(4-fluorophenyl)methyl]-4-methyl-6-[7-(2-methyl-3H-imidazo[4,5-b]pyridin-6-yl)-2,3-dihydro-1,4-benzoxazepin-4(5H)-yl]pyrimidin-2-yl}-N,N-dimethylmethanamine]
≤ 0.01 µM	CCNc1nc2ncc(-c3ccc4c(c3)CN(c3nc(C)nc5c3CC(C)(C)CC5)CCO4)cc2[nH]1 [Example 290, N-ethyl-6-[4-(2,6,6-trimethyl-5,6,7,8-tetrahydroquinazolin-4-yl)-2,3,4,5-tetrahydro-1,4-benzoxazepin-7-yl]-1H-imidazo[4,5-b]pyridin-2-amine]
0.25 to 1 µM	COc1cc2nccc(N3CCOc4ccc(-c5ccc6nc(N)[nH]c6c5)cc4C3)c2cc1OC [Example 191, 6-{4-[6,7-bis(methyloxy)quinolin-4-yl]-2,3,4,5-tetrahydro-1,4-benzoxazepin-7-yl}-1H-benzimidazol-2-amine]
0.25 to 1 µM	c1ccc2c(N3CCOc4ccc(-c5ccc6nc(C7CCCCN7)[nH]c6c5)cc4C3)ccnc2c1 (centres unmarked) [Example 202, 7-(2-piperidin-2-yl-1H-benzimidazol-6-yl)-4-quinolin-4-yl-2,3,4,5-tetrahydro-1,4-benzoxazepine]
0.25 to 1 µM	Cc1nc2ccc(-c3ccc4c(c3)CN(c3ncnc5sccc35)CCO4)cc2[nH]1 [Example 45, 7-(2-methyl-1H-benzimidazol-6-yl)-4-thieno[2,3-d]pyrimidin-4-yl-2,3,4,5-tetrahydro-1,4-benzoxazepine]
0.01 to 0.05 µM	Cc1nc(C)c(CC2CC2)c(N2CCOc3ccc(-c4cnc5nc(C6CC6)[nH]c5c4)cc3C2)n1 [Example 547, 7-(2-cyclopropyl-1H-imidazo[4,5-b]pyridin-6-yl)-4-[5-(cyclopropylmethyl)-2,6-dimethylpyrimidin-4-yl]-2,3,4,5-tetrahydro-1,4-benzoxazepine]
0.01 to 0.05 µM	CC1(C)CCc2ncnc(N3CCOc4ccc(-c5cnc(N)c(S(=O)(=O)N6CCC(N)CC6)c5)cc4C3)c2C1 [Example 446, 3-[(4-aminopiperidin-1-yl)sulfonyl]-5-[4-(6,6-dimethyl-5,6,7,8-tetrahydroquinazolin-4-yl)-2,3,4,5-tetrahydro-1,4-benzoxazepin-7-yl]pyridin-2-amine]
0.01 to 0.05 µM	CC1(C)CCc2ncnc(N3CCOc4ccc(-c5cnc(Cl)c(NS(C)(=O)=O)c5)cc4C3)c2C1 [Example 623, N-{2-chloro-5-[4-(6,6-dimethyl-5,6,7,8-tetrahydroquinazolin-4-yl)-2,3,4,5-tetrahydro-1,4-benzoxazepin-7-yl]pyridin-3-yl}methanesulfonamide]
0.25 to 1 µM	Cc1nc2ccc(-c3ccc4c(c3)CN(c3ncnc5ccc(S(C)(=O)=O)cc35)CCO4)cc2[nH]1 [Example 50, 7-(2-methyl-1H-benzimidazol-6-yl)-4-[6-(methylsulfonyl)quinazolin-4-yl]-2,3,4,5-tetrahydro-1,4-benzoxazepine]
1 to 2 µM	COc1ccc2c(N3CCOc4ccc(-c5cnc6[nH]cnc6c5)cc4C3)nc(CN(C)C)nc2c1 [Example 691, 1-{4-[7-(3H-imidazo[4,5-b]pyridin-6-yl)-2,3-dihydro-1,4-benzoxazepin-4(5H)-yl]-7-(methyloxy)quinazolin-2-yl}-N,N-dimethylmethanamine]
0.05 to 0.25 µM	CC1(C)CCc2ncnc(N3CCOc4ccc(-c5cnc(N)c(S(=O)(=O)N6CCCC6)c5)cc4C3)c2C1 [Example 515, 5-[4-(6,6-dimethyl-5,6,7,8-tetrahydroquinazolin-4-yl)-2,3,4,5-tetrahydro-1,4-benzoxazepin-7-yl]-3-(pyrrolidin-1-ylsulfonyl)pyridin-2-amine]
0.01 to 0.05 µM	CC[C@@H](C)NCc1nc2c(c(N3CCOc4ccc(-c5cnc6nc(C)[nH]c6c5)cc4C3)n1)CC(C)(C)CC2 [Example 300, (2R)-N-({6,6-dimethyl-4-[7-(2-methyl-1H-imidazo[4,5-b]pyridin-6-yl)-2,3-dihydro-1,4-benzoxazepin-4(5H)-yl]-5,6,7,8-tetrahydroquinazolin-2-yl}methyl)butan-2-amine]
0.25 to 1 µM	COc1cc2c(N3CCOc4ccc(-c5ccc6nc(C)[nH]c6c5)cc4C3)ncnc2cc1Br [Example 31, 4-[7-bromo-6-(methyloxy)quinazolin-4-yl]-7-(2-methyl-1H-benzimidazol-6-yl)-2,3,4,5-tetrahydro-1,4-benzoxazepine]
≤ 0.01 µM	Cc1nc2c(c(N3CCOc4ccc(-c5cnc6nc(C7CC7)[nH]c6c5)cc4C3)n1)CC(C)(C)CC2 [Example 544, 7-(2-cyclopropyl-1H-imidazo[4,5-b]pyridin-6-yl)-4-(2,6,6-trimethyl-5,6,7,8-tetrahydroquinazolin-4-yl)-2,3,4,5-tetrahydro-1,4-benzoxazepine]
≥ 2 µM	c1ccc2c(N3CCOc4ccc(-c5ccc6nccnc6c5)cc4C3)ccnc2c1 [Example 132, 4-quinolin-4-yl-7-quinoxalin-6-yl-2,3,4,5-tetrahydro-1,4-benzoxazepine]
0.01 to 0.05 µM	CC1(C)CCc2ncnc(N3CCOc4ccc(-c5cnc(N)c(S(=O)(=O)NCCCN)c5)cc4C3)c2C1 [Example 414, 2-amino-N-(3-aminopropyl)-5-[4-(6,6-dimethyl-5,6,7,8-tetrahydroquinazolin-4-yl)-2,3,4,5-tetrahydro-1,4-benzoxazepin-7-yl]pyridine-3-sulfonamide]
≤ 0.01 µM	Cc1nc2ccc(-c3ccc4c(c3)CN(c3ncnc(C)c3C(C)c3cccc(F)c3)CCO4)cc2[nH]1 (centres unmarked) [Example 94, 4-{5-[1-(3-fluorophenyl)ethyl]-6-methylpyrimidin-4-yl}-7-(2-methyl-1H-benzimidazol-6-yl)-2,3,4,5-tetrahydro-1,4-benzoxazepine]
≤ 0.01 µM	Nc1nc2ncc(-c3ccc4c(c3)CN(c3ncnc5ccc(I)cc35)CCO4)cc2[nH]1 [Example 183, 6-[4-(6-iodoquinazolin-4-yl)-2,3,4,5-tetrahydro-1,4-benzoxazepin-7-yl]-1H-imidazo[4,5-b]pyridin-2-amine]
0.05 to 0.25 µM	CN(C)C1CN(S(=O)(=O)c2cc(-c3ccc4c(c3)CN(c3ncnc5c3CC(C)(C)CC5)CCO4)cnc2N)C1 [Example 455, 3-{[3-(dimethylamino)azetidin-1-yl]sulfonyl}-5-[4-(6,6-dimethyl-5,6,7,8-tetrahydroquinazolin-4-yl)-2,3,4,5-tetrahydro-1,4-benzoxazepin-7-yl]pyridin-2-amine]
0.05 to 0.25 µM	Cc1nc2ccc(-c3ccc4c(c3)CN(c3ccnc5ccccc35)CCO4)cc2[nH]1 [Example 98, 7-(2-methyl-1H-benzimidazol-6-yl)-4-quinolin-4-yl-2,3,4,5-tetrahydro-1,4-benzoxazepine]
0.01 to 0.05 µM	CC1(C)CCc2ncnc(N3CCOc4ccc(-c5cnc(N)c(S(=O)(=O)NCC6CNC6)c5)cc4C3)c2C1 [Example 415, 2-amino-N-(azetidin-3-ylmethyl)-5-[4-(6,6-dimethyl-5,6,7,8-tetrahydroquinazolin-4-yl)-2,3,4,5-tetrahydreo-1,4-benzoxazepin-7-yl]pyridine-3-sulfonamide]
0.25 to 1 µM	CN(C)Cc1nc2c(c(N3CCOc4ccc(-c5ccc6scnc6c5)cc4C3)n1)CC(C)(C)CC2 [Example 337, 1-{4-[7-(1,3-benzothiazol-5-yl)-2,3-dihydro-1,4-benzoxazepin-4(5H)-yl]-6,6-dimethyl-5,6,7,8-tetrahydroquinazolin-2-yl}-N,N-dimethylmethanamine]
0.05 to 0.25 µM	COc1ccc2c(N3CCOc4ccc(-c5cnc6[nH]c(C)nc6c5)cc4C3)nc(C)nc2c1 [Example 568, 7-(2-methyl-1H-imidazo[4,5-b]pyridin-6-yl)-4-[2-methyl-7-(methyloxy)quinazolin-4-yl]-2,3,4,5-tetrahydro-1,4-benzoxazepine]
